# Measurements from PubChem BioAssay (NCI).
#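 Cultured in 96-well plates, cells were exposed to test compound for 48 hours across five concentrations. Abbreviation: GI50, concentration required for 50% inhibition of growth. At the TGI there is no net growth.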
# What was measured:
# Test in all cases: NCI-60 cell line screen, 48 h
# BT-549 breast = system: BT-549 breast
# HL-60(TB) leukemia = system: HL-60(TB) leukemia
# K-562 leukemia = system: K-562 leukemia
# MCF7 breast = system: MCF7 breast
# MDA-MB-231 breast = system: MDA-MB-231 breast
# NCI-H460 lung = system: NCI-H460 lung
# OVCAR-8 ovarian = system: OVCAR-8 ovarian
# SK-MEL-2 melanoma = system: SK-MEL-2 melanoma
# SN12C renal = system: SN12C renal
# SR leukemia = system: SR leukemia
Structure (SMILES),GI50 (BT-549 breast),TGI (BT-549 breast),GI50 (HL-60(TB) leukemia),TGI (HL-60(TB) leukemia),GI50 (K-562 leukemia),TGI (K-562 leukemia),GI50 (MCF7 breast),TGI (MCF7 breast),GI50 (MDA-MB-231 breast),TGI (MDA-MB-231 breast),GI50 (NCI-H460 lung),TGI (NCI-H460 lung),GI50 (OVCAR-8 ovarian),TGI (OVCAR-8 ovarian),GI50 (SK-MEL-2 melanoma),TGI (SK-MEL-2 melanoma),GI50 (SN12C renal),TGI (SN12C renal),GI50 (SR leukemia),TGI (SR leukemia)
COc1cc(-c2nn(-c3ccc(NC(=O)Nc4ccc(Cl)c(Cl)c4)cc3)cc2-c2ccncc2)ccc1Cl,3.35 µM,11.2 µM,3550 nM,> 100 µM,3510 nM,> 100 µM,3350 nM,> 100 µM,2.62 µM,7.7 µM,2420 nM,5.64 µM,3.49 µM,> 100 µM,3.44 µM,39.7 µM,3.96 µM,> 100 µM,3770 nM,> 100 µM
CCNC(C)(C)C(SS)c1ccc(Br)cc1 (stereo unspecified),,> 100 µM,,53 µM,,> 100 µM,,> 100 µM,,> 100 µM,,> 100 µM,,> 100 µM,,> 100 µM,,> 100 µM,,> 100 µM
N#CC(C#N)=Cc1c(-c2ccccc2)[nH]c2ccccc12,8.45 µM,> 100 µM,1620 nM,> 20.2 µM,478 nM,> 100 µM,1070 nM,> 47.2 µM,1.42 µM,30.3 µM,2020 nM,> 39.8 µM,5.75 µM,> 90.2 µM,19.1 µM,> 70.6 µM,5.82 µM,> 73.3 µM,> 100000 nM,> 100 µM
CN(Cc1cnc(N)nc1N)c1ccc(C(=O)O)cc1,> 100 µM,> 100 µM,> 100000 nM,> 100 µM,,,> 100000 nM,> 100 µM,> 100 µM,> 100 µM,> 100000 nM,> 100 µM,> 100 µM,> 100 µM,> 100 µM,> 100 µM,> 100 µM,> 100 µM,> 100000 nM,> 100 µM
CC[C@@]1(OC(=O)CN)C(=O)OCc2c1cc1n(c2=O)Cc2cc3cc4c(cc3nc2-1)OCO4,0.0157 µM,0.552 µM,< 10 nM,,< 10 nM,,< 10 nM,> 100 µM,0.787 µM,> 23.7 µM,< 10 nM,0.0238 µM,< 0.01 µM,0.13 µM,0.105 µM,0.438 µM,< 0.01 µM,0.563 µM,< 10 nM,
Cc1csc(/C=N/NC(=O)c2nnn(-c3ccnc4c(C(F)(F)F)cccc34)c2C)c1,> 100 µM,> 100 µM,50300 nM,> 100 µM,35000 nM,> 100 µM,> 100000 nM,> 100 µM,31.7 µM,> 100 µM,> 100000 nM,> 100 µM,74.1 µM,> 100 µM,> 100 µM,> 100 µM,71.4 µM,> 100 µM,19300 nM,> 100 µM
COc1cc2ccccc2c2cc([N+](=O)[O-])oc12,,7.16 µM,,> 31.2 µM,,> 38.9 µM,,15.8 µM,,5.8 µM,,1.06 µM,,> 71.8 µM,,0.452 µM,,> 48.7 µM,,1.92 µM
COc1ccc(C(C#N)NC23CC4CC(CC(C4)C2)C3)cc1OC (stereo unspecified),,> 100 µM,,> 100 µM,,> 100 µM,,> 100 µM,,> 100 µM,,> 100 µM,,> 100 µM,,> 100 µM,,> 100 µM,,> 100 µM
O=C(/C=C/c1ccccc1)c1c[nH]c2ccccc2c1=O,4.84 µM,17.8 µM,2810 nM,10.6 µM,2740 nM,54.8 µM,2330 nM,12.6 µM,4.22 µM,18.7 µM,2060 nM,5.09 µM,2.23 µM,6.82 µM,2.42 µM,5.72 µM,3.54 µM,15.5 µM,2620 nM,> 100 µM
COc1ccc(-c2nn(-c3ccc(NC(=O)c4ccc(Cl)c(C(F)(F)F)c4)cc3)cc2-c2ccncc2)cc1Cl,1.16 µM,96.9 µM,794 nM,> 100 µM,706 nM,> 100 µM,1590 nM,> 100 µM,0.317 µM,1.35 µM,441 nM,> 100 µM,2.37 µM,> 100 µM,0.345 µM,1.44 µM,2.34 µM,> 100 µM,316 nM,> 100 µM
COc1ccc2c(c1)[C@]1(C[C@H]1c1ccc3c(/C=C/c4ccc(CN5C[C@@H](C)O[C@@H](C)C5)cc4)n[nH]c3c1)C(=O)N2,1.75 µM,5.29 µM,2690 nM,13.7 µM,,,1590 nM,> 75.4 µM,4.35 µM,> 54 µM,1600 nM,12.1 µM,5.06 µM,51.1 µM,8.28 µM,> 100 µM,5.15 µM,> 56.7 µM,269 nM,6.61 µM
CC1=CC[C@@H]2C(C)(C)C(=O)CC[C@@]2(C)[C@@H]1COc1ccc2ccc(=O)oc2c1,4.37 µM,22.5 µM,7300 nM,29.2 µM,7020 nM,88.7 µM,12400 nM,31.9 µM,25.5 µM,> 100 µM,21800 nM,79.7 µM,5.69 µM,39 µM,11.5 µM,42.3 µM,27.3 µM,> 100 µM,13200 nM,68.5 µM
C=CCn1c(=O)c2cnc(Nc3ccc(N4CCN(C)CC4)cc3)nc2n1-c1ccc2c(n1)[C@@](O)(CC)CC2,0.287 µM,3.46 µM,189 nM,1.3 µM,325 nM,> 34.8 µM,344 nM,> 42.8 µM,0.558 µM,4.19 µM,1940 nM,16.7 µM,0.573 µM,5.62 µM,0.332 µM,2.44 µM,0.507 µM,> 55.7 µM,193 nM,1.38 µM
Cc1onc(-c2c(F)cccc2Cl)c1-c1ncc(-c2ccc(Cl)cc2)o1,6.5 µM,> 100 µM,4020 nM,> 100 µM,4350 nM,> 100 µM,4490 nM,> 100 µM,6.5 µM,> 100 µM,3180 nM,> 100 µM,4.69 µM,> 100 µM,,,5.34 µM,> 100 µM,2920 nM,31.3 µM
